The record followed here is ChEMBL document CHEMBL1212917, “Substituted E-3-(3-indolylmethylene)-1,3-dihydroindol-2-ones with antitumor activity. In depth study of the effect on growth of breast cancer cells” (2010).

Structures can show the parent of a compound that is named as a salt.

Holding throughout (format): functional
Experiment [1] in a line: Growth inhibition of human colon cancer cells after 48 hrs. The settings on record: Cancer cell lines; for CC50: read-out: LC50 (the source's name).
Experiment [2] in a line: Growth inhibition of human CNS cancer cells after 48 hrs. Particulars: Cancer cell lines; for CC50: read-out: LC50 (the source's name).
A short description of experiment [3]: Growth inhibition of human Ovarian cancer cells after 48 hrs. The settings on record: Cancer cell lines; for CC50: read-out: LC50 (the source's name).
Experiment [4] is described as follows: Growth inhibition of human breast cancer cells after 48 hrs. Particulars: Cancer cell lines; for CC50: read-out: LC50 (the source's name).
The subject of another experiment is NSCLC. As to the kind of experiment: Growth inhibition of human NSCLC cells after 48 hrs.
Experiment [5] can be described thus: Growth inhibition of human leukemia cells after 48 hrs. Particulars: Leukemia cell; for CC50: read-out: LC50 (the source's name).
Experiment [6] in a line: Growth inhibition of human renal cancer cells after 48 hrs. Particulars: Cancer cell lines; for CC50: read-out: LC50 (the source's name).
Experiment [7] can be described thus: Growth inhibition of human melanoma cells after 48 hrs. Particulars: Melanoma cell; for CC50: read-out: LC50 (the source's name).
Experiment [8] is described as follows: Growth inhibition of human prostate cancer cells after 48 hrs. Particulars: Cancer cell lines; for CC50: read-out: LC50 (the source's name).

Take `COc1cc2c(/C=C3/C(=O)Nc4ccc(N(C)C)cc43)c(Cl)n(C)c2cc1C`: the GI50 (usually the concentration at which growth is held to half of that of the control) in experiment [1] came to 12.3 µM; in experiment [2], 10.7 µM; in [3], 10.5 µM; in experiment [4], 6.92 µM; in the experiment with NSCLC, 18.2 µM; in experiment [5] it was 10 µM. Besides, the values for the 50% growth inhibitory concentration (GI50) in experiment [6], in [7] and in experiment [8] were 11.2 µM, 10.2 µM and 20.4 µM, respectively. In addition, the CC50 in [3] worked out at 91.2 µM; in experiment [5], 87.1 µM; in [7], 93.3 µM.
For `CN(C)c1ccc2[nH]c(Cl)c(/C=C3/C(=O)Nc4ccc(Cl)cc43)c2c1`, the GI50 in [1] worked out at 2.09 µM; in experiment [2] it was 1.58 µM; in experiment [3], 3.31 µM; in experiment [4], 1.32 µM; in the experiment on NSCLC it was 2.57 µM; in [5], 1.62 µM. Moreover, the figures for the GI50 in experiment [6], in experiment [7] and in experiment [8] were 1.78 µM, 2.69 µM and 2.45 µM, respectively. Besides, the CC50 in [1] is 22.9 µM; in [2], 18.2 µM; in experiment [3], 41.7 µM; in experiment [4], 55 µM; in experiment [5] it was 91.2 µM; in experiment [6], 29.5 µM. Moreover, the CC50 in [7] stood at 37.1 µM; in experiment [8], 46.8 µM. Also, in the experiment with NSCLC, the LC50 (in general, the concentration lethal to half of the exposed cells or organisms) was determined as 46.8 µM.
As for `CN(C)c1ccc2[nH]c(Cl)c(/C=C3/C(=O)N(C)c4ccc(O)cc43)c2c1`, the concentration for 50% growth inhibition (GI50) in [1] stood at 4.9 µM; in experiment [2], 6.03 µM; in experiment [3], 8.32 µM; in [4], 3.8 µM; in the experiment with NSCLC, 6.61 µM; in experiment [5], 16.6 µM. Besides, the 50% growth inhibitory concentration (GI50) in [6] worked out at 4.37 µM; in [7], 4.57 µM; in experiment [8] it was 12.9 µM. Moreover, the TGI (commonly the concentration at which net growth stops) in experiment [1] came out at 20.9 µM; in experiment [2], 33.9 µM; in experiment [3] it was 55 µM; in experiment [4], 30.9 µM; in the experiment on NSCLC, 46.8 µM; in [6], 31.6 µM. Moreover, in [7], total growth inhibition (TGI) required 26.3 µM. The CC50 in experiment [1] was determined as 61.7 µM; in experiment [2], 85.1 µM; in experiment [3] it was 95.5 µM; in experiment [6], 87.1 µM; in experiment [7], 66.1 µM. The compound also gave an LC50 in the experiment with NSCLC of 85.1 µM.
With `COc1cc2c(/C=C3/C(=O)Nc4ccc(Br)cc43)c(Cl)[nH]c2cc1C`, the GI50 in [1] was 1.95 µM; in [2] it was 1.58 µM; in experiment [3] it was 2 µM; in experiment [4], 2.14 µM; in the experiment on NSCLC it was 3.02 µM; in experiment [5], 1.62 µM. In addition, the GI50 in [6] came out at 2.45 µM; in [7] it was 2.14 µM; in experiment [8], 2.24 µM. Moreover, the CC50 in [1] was determined as 23.4 µM; in experiment [2], 35.5 µM; in experiment [3], 38.9 µM; in experiment [4] it was 50.1 µM; in [5] it was 37.1 µM; in experiment [6], 37.1 µM. The CC50 in experiment [7] was found to be 41.7 µM; in [8], 30.9 µM. In the experiment with NSCLC, this compound displayed an LC50 of 53.7 µM.
As for `COc1cc2c(/C=C3/C(=O)Nc4ccc(Br)cc43)c(Cl)n(C)c2cc1C`, the GI50 in experiment [1] was 1.55 µM; in experiment [2], 0.93 µM; in [3] it was 3.47 µM; in [4], 0.95 µM; in the experiment on NSCLC, 1.91 µM; in experiment [5], 2.51 µM. Also, the 50% growth inhibitory concentration (GI50) amounted to 1.7 µM in experiment [6], 1.55 µM in experiment [7] and 1.55 µM in [8]. Moreover, the CC50 in experiment [1] was determined as 29.5 µM; in [2], 38.9 µM; in experiment [3] it was 43.6 µM; in experiment [4], 31.6 µM; in experiment [6], 26.9 µM; in [7], 31.6 µM. Moreover, the CC50 in experiment [8] turned out to be 26.3 µM. The compound further had an LC50 in the experiment with NSCLC of 37.1 µM.
As to `CN(C)c1ccc2[nH]c(Cl)c(/C=C3/C(=O)Nc4ccc(O)cc43)c2c1`, the GI50 was 3.89 µM in [1]; 3.8 µM in experiment [2]; 7.24 µM in experiment [3]; 2.88 µM in experiment [4]; 5.13 µM in the experiment on NSCLC; 2.24 µM in [5]. The figures for the GI50 in [6], in [7] and in experiment [8] were 5.13 µM, 5.25 µM and 8.91 µM, respectively. The CC50 in [1] is 69.2 µM; in [6], 91.2 µM; in experiment [7], 79.4 µM. The same compound displayed an LC50 in the experiment on NSCLC of 95.5 µM.
Consider `CC[C@]1(O)C[C@H]2CN(CCc3c([nH]c4ccccc34)[C@@](C(=O)OC)(c3cc4c(cc3OC)N(C=O)[C@H]3[C@@](O)(C(=O)OC)[C@H](OC(C)=O)[C@]5(CC)C=CCN6CC[C@]43[C@@H]65)C2)C1` [VINCRISTINE SULFATE], for which the 50% growth inhibitory concentration (GI50) in experiment [1] was 0.1 µM; in experiment [2], 0.13 µM; in experiment [3], 0.32 µM; in [4], 0.32 µM; in the experiment with NSCLC, 0.25 µM; in experiment [5] it was 0.1 µM. The GI50 came to 0.32 µM in experiment [6], 0.16 µM in [7] and 0.13 µM in experiment [8]. In addition, the CC50 came to 79.4 µM in experiment [1]; 200 µM in [2]; 316 µM in experiment [3]; 316 µM in experiment [4]; 631 µM in [5]; 251 µM in experiment [6]. Also, the CC50 in [7] is 251 µM; in experiment [8] it was 316 µM.
In the case of `COc1cc2c(/C=C3/C(=O)N(C)c4ccccc43)c(Cl)n(C)c2cc1C`, the GI50 in experiment [1] was determined as 0.2 µM; in [2], 0.2 µM; in [3], 0.38 µM; in experiment [4], 0.28 µM; in the experiment with NSCLC, 0.58 µM; in [5], 0.25 µM. For the same compound, the results for the GI50 in [6], in [7] and in experiment [8] were 0.33 µM, 0.34 µM and 0.39 µM, respectively. Besides, the CC50 in experiment [1] stood at 72.4 µM; in [2] it was 74.1 µM; in experiment [3] it was 95.5 µM; in experiment [4] it was 95.5 µM; in experiment [5], 46.8 µM; in experiment [6], 79.4 µM. Besides, the CC50 amounted to 69.2 µM in [7] and 66.1 µM in experiment [8].
Take `COc1cc2c(/C=C3/C(=O)N(C)c4ccc(O)cc43)c(Cl)n(C)c2cc1C`: the 50% growth inhibitory concentration (GI50) is 0.07 µM in experiment [1]; 0.04 µM in [2]; 0.26 µM in experiment [3]; 0.06 µM in [4]; 0.22 µM in the experiment with NSCLC; 0.05 µM in experiment [5]. Also, the GI50 in experiment [6] was 0.11 µM; in experiment [7], 0.11 µM; in experiment [8] it was 0.1 µM. Besides, the CC50 worked out at 26.9 µM in [1]; 29.5 µM in experiment [2]; 47.9 µM in [3]; 40.7 µM in [4]; 19.9 µM in [5]; 36.3 µM in [6]. For the same compound, the CC50 is 33.1 µM in experiment [7] and 24 µM in experiment [8]. Further, the LC50 in the experiment with NSCLC was 42.7 µM.
`COc1cc2c(cc1C)NC(=O)/C2=C/c1c(Cl)n(C)c2cc(C)c(OC)cc12`: the concentration for 50% growth inhibition (GI50) in experiment [1] came to 22.9 µM; in experiment [2], 26.9 µM; in experiment [3], 30.2 µM; in experiment [4] it was 18.6 µM; with NSCLC it was 34.7 µM; in experiment [5], 18.2 µM. Besides, the 50% growth inhibitory concentration (GI50) came to 41.7 µM in experiment [6], 15.1 µM in [7] and 22.4 µM in experiment [8]. Besides, the CC50 in [4] turned out to be 95.5 µM; in experiment [5] it was 97.7 µM; in experiment [7], 57.5 µM.
